# Laboratory results as given in US8436159B2, “Glyphosate resistant class I 5-endolpyruvylshikimate-3-phosphate synthase (EPSPS)” (Monsanto Technology LLC, priority 2003, dated 2013).
# Key:
# [1] = molecular target: T1, maize (Zea mays) class I EPSPS, wild type (WT), pMON70461, DNA SEQ ID NO:3 (Zea mays, UniProt O24566); experiment: EPSPS steady-state kinetics, wild-type maize EPSPS; type: biochemical
# T1 construct: pMON70461
# T1 sequence (O24566 with tags, fused parts or gaps): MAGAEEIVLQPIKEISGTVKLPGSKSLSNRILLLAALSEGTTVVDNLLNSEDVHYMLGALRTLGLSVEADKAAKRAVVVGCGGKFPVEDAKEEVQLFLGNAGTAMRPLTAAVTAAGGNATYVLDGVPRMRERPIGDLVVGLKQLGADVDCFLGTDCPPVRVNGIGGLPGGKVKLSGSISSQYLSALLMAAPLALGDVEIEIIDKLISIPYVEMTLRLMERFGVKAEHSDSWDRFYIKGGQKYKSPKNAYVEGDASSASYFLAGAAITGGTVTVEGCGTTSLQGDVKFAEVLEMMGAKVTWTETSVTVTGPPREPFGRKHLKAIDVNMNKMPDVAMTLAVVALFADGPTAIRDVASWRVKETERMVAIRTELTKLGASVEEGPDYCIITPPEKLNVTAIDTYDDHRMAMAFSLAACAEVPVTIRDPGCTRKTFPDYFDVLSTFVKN
# Experimental: The wild type and variant EPSPS coding sequences were cloned into a pET-19b base vector (Novagen, Madison, Wis.). The plant (maize) class I EPSPS variants so created were assigned pMON plasmid numbers (Table 2). The variant EPSPS proteins were purified from the E. coli host using the protocols outlined in the pET system manual, 9th edition (Novagen) or by the following method. A single colony or a few microliters from a glycerol stock was inoculated into 4 mL LB medium containing 0.1 mg/mL carbenicillin antibiotic. The culture was incubated with shaking at 37 C for 4 hours. The cultures were stored at 4° C. overnight. The following morning, 1 mL of the overnight culture was used to inoculate 100 mL of fresh LB medium containing 0.1 mg/mL carbenicillin. The cultures were incubated with shaking at 37 C for 4-5 hours, then the cultures were placed at 4° C. for 5-10 minutes. The cultures were then induced with IPTG (1 mM final concentration) and incubated with shaking at 30 C for 4 hours or 20° C. overnight. The cells were harvested by centrifugation at 7000 rpm for 20 minutes at 4° C. The supernatant was removed and the cells were frozen at −70° C. until further use. The proteins were extracted by resuspending the cell pellet in BugBuster reagent (Novagen) using 5 mL reagent per gram of cells. Benzonase (125 Units) was added to the resuspension and the cell suspension was then incubated on a rotating mixer for 20 minutes at room temperature. The cell debris was removed by centrifugation at 10,000 rpm for 20 minutes at room temperature. The supernatant was passed through a 0.45 μm syringe-end filter and transferred to a fresh tube. A pre-packed columns containing 1.25 mL of His-Bind resin was equilibrated with 10 mL of 5 mM imidazole, 0.5 M NaCl, 20 mM Tris-HCl pH 7.9 (1× Binding Buffer). The column was then loaded with the prepared cell extract. After the cell extract had drained, the column was then washed with 10 mL of 1× Binding Buffer, followed with 10 mL of 60 mM imidazole, 0.5 M NaCl, 20 mM Tris-HCl pH 7.9 (1× Wash Buffer). […]
# [2] = molecular target: T2, maize (Zea mays) class I EPSPS variant TIPS (T102I, P106S), pMON70462 (Zea mays, UniProt O24566, P106S/T102I); experiment: EPSPS steady-state kinetics, TIPS variant; type: biochemical
# T2 construct: pMON70462
# T2 sequence (O24566 1-444 T102I/P106S): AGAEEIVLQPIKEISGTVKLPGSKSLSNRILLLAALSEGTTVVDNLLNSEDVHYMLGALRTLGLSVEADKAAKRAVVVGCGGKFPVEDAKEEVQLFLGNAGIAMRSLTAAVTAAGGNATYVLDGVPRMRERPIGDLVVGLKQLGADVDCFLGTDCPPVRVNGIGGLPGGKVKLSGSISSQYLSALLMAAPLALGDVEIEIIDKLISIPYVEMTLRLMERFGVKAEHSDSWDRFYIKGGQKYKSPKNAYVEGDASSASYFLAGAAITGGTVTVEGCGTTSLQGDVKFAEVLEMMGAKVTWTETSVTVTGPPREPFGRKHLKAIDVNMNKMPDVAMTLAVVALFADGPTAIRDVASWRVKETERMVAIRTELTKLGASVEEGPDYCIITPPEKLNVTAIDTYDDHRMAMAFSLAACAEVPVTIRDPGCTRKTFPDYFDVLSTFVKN
# Experimental: The wild type and variant EPSPS coding sequences were cloned into a pET-19b base vector (Novagen, Madison, Wis.). The plant (maize) class I EPSPS variants so created were assigned pMON plasmid numbers (Table 2). The variant EPSPS proteins were purified from the E. coli host using the protocols outlined in the pET system manual, 9th edition (Novagen) or by the following method. A single colony or a few microliters from a glycerol stock was inoculated into 4 mL LB medium containing 0.1 mg/mL carbenicillin antibiotic. The culture was incubated with shaking at 37 C for 4 hours. The cultures were stored at 4° C. overnight. The following morning, 1 mL of the overnight culture was used to inoculate 100 mL of fresh LB medium containing 0.1 mg/mL carbenicillin. The cultures were incubated with shaking at 37 C for 4-5 hours, then the cultures were placed at 4° C. for 5-10 minutes. The cultures were then induced with IPTG (1 mM final concentration) and incubated with shaking at 30 C for 4 hours or 20° C. overnight. The cells were harvested by centrifugation at 7000 rpm for 20 minutes at 4° C. The supernatant was removed and the cells were frozen at −70° C. until further use. The proteins were extracted by resuspending the cell pellet in BugBuster reagent (Novagen) using 5 mL reagent per gram of cells. […]
smiles,measurement,setting,value
"O=C(O)CNCP(=O)(O)O [glyphosate, N-phosphonomethylglycine]",Ki,[1],0.5 ± 0.06 µM
same,Ki,[2],58 ± 14 µM
